Drawing on PMC4875834 (The Biochemical journal, 2016), this text covers IC50 for one molecule.

In general, IC50 refers to the midpoint of a concentration-inhibition curve.

For the assay, the target named is T1, DC-SIGN (Homo sapiens, UniProt Q9NNX6).
T1 sequence (Q9NNX6 62-404): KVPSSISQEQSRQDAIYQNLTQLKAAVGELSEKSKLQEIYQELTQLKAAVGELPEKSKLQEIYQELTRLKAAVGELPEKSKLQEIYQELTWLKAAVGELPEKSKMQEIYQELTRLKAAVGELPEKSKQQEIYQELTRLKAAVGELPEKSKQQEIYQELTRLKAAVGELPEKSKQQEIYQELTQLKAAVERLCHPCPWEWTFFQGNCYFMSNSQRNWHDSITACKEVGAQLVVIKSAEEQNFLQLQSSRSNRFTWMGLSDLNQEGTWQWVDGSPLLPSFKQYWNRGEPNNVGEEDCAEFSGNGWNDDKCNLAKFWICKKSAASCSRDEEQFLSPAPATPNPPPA
The assay is described as follows: free-glycan inhibition of DC-SIGN binding to HMG microarrays.

For `C[C@@H]1O[C@@H](O[C@H]2[C@H](O[C@H]3[C@H](O)[C@@H](O)C(O)O[C@@H]3CO)O[C@H](CO)[C@H](O)[C@@H]2O)[C@@H](O)[C@H](O)[C@@H]1O` (stereo partly shown) [2′-FL, 2′-fucosyllactose], the IC50 is ~1000 µM.
